# Like-named read-outs stand apart in the source and are kept apart here.
# How the values were obtained:
# [1] = system: liver cancer (3 cell lines); assay: CellTiter-Glo Viability Assay, liver cancer; assay type: cell-based; conditions: Homo sapiens, inhibition of cancer cell proliferation
# CLK2 = biological target: T1, CLK2 (Homo sapiens, UniProt P49760); assay: CLK2 kinase activity assay (Z-lyte, Ser/Thr 6 peptide); assay type: biochemical; conditions: recombinant CLK2 kinase, ATP 60 μM; read-out: EC50
# T1 construct: purchased Thermo Fisher (Life Technologies), Z'-LYTE Kinase Assay Kits
# Experimental: All reactions were performed in duplicate.
# [2] = system: lung cancer (4 cell lines); assay: CellTiter-Glo Viability Assay, lung cancer; assay type: cell-based; conditions: Homo sapiens, inhibition of cancer cell proliferation
# all 50 cell lines = assay: CellTiter-Glo Viability Assay, average across all cell lines; assay type: cell-based; conditions: Homo sapiens; across all 50 cell lines; read-out: average EC50 for inhibition of cancer cell proliferation
# Procedure, shortened: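 Human cancer cell lines from breast, colorectal, haematopoietic/lymphoid, liver, lung, ovarian, pancreatic and prostate tumours were seeded at 300-3,000 cells/well and exposed to compound in duplicate for four days at 37° C, 5% CO2. Viable cells were measured by ATP luminescence; EC50 values came from dose-response curves.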
# CAMA1 = assay: CellTiter-Glo Viability Assay, breast cancer; assay type: cell-based; conditions: Homo sapiens, CAMA-1, 96 h; CAMA1, breast cancer, four days; read-out: EC50
# MCF7 = assay: CellTiter-Glo Viability Assay, breast cancer; assay type: cell-based; conditions: Homo sapiens, 96 h; MCF7, breast cancer, four days; read-out: EC50
# HCC1599 = assay: CellTiter-Glo Viability Assay, breast cancer; assay type: cell-based; conditions: Homo sapiens, 96 h; HCC1599, breast cancer, four days; read-out: EC50
# T47D = assay: CellTiter-Glo Viability Assay, breast cancer; assay type: cell-based; conditions: Homo sapiens, 96 h, breast cancer, four days, read-out: EC50
# ZR-75-1 = assay: CellTiter-Glo Viability Assay, breast cancer; assay type: cell-based; conditions: Homo sapiens, 96 h; ZR-75-1, breast cancer, four days; read-out: EC50
# BT-549 = assay: CellTiter-Glo Viability Assay, breast cancer; assay type: cell-based; conditions: Homo sapiens, 96 h; BT-549, breast cancer, four days; read-out: EC50
# DU4475 = assay: CellTiter-Glo Viability Assay, breast cancer; assay type: cell-based; conditions: Homo sapiens, DU-4475, 96 h; DU4475, breast cancer, four days; read-out: EC50
# MDA-MB-231-Luc = assay: CellTiter-Glo Viability Assay, breast cancer; assay type: cell-based; conditions: Homo sapiens, 96 h; MDA-MB-231-Luc, breast cancer, four days; read-out: EC50
# [3] = system: haematopoietic & lymphoid tumors (13 cell lines); assay: CellTiter-Glo Viability Assay, haematopoietic & lymphoid tumors; assay type: cell-based; conditions: Homo sapiens, inhibition of cancer cell proliferation
# [4] = system: colorectal cancer (6 cell lines); assay: CellTiter-Glo Viability Assay, colorectal cancer; assay type: cell-based; conditions: Homo sapiens, inhibition of cancer cell proliferation
# [5] = system: pancreatic cancer (8 cell lines); assay: CellTiter-Glo Viability Assay, pancreatic cancer; assay type: cell-based; conditions: Homo sapiens, inhibition of cancer cell proliferation
# CLK3 = CLK3 (Homo sapiens, UniProt P49761); assay: CLK3 kinase activity assay (Z-lyte, Ser/Thr 18 peptide)
# [6] = system: prostate cancer (5 cell lines); assay: CellTiter-Glo Viability Assay, prostate cancer; assay type: cell-based; conditions: Homo sapiens
# [7] = system: ovarian cancer (4 cell lines); assay: CellTiter-Glo Viability Assay, ovarian cancer; assay type: cell-based; conditions: Homo sapiens, inhibition of cancer cell proliferation
# [8] = SNU-398, SNU398 cell line, read-out: Liver cancer, EC50 SNU398
# [9] = HEPG2 cell line, read-out: Liver cancer, EC50 HEPG2
# [10] = PLC/PRF/5 cell line, read-out: Liver cancer, EC50 PLC/PRF/5
# [11] = A-427, A427 cell line, read-out: Lung cancer, EC50 (μM) A427
# [12] = HCC78, HCC-78 cell line, read-out: Lung cancer, EC50 (μM) HCC-78
# [13] = NCI-H460 cell line, read-out: Lung cancer, EC50 (μM) NCI-H460
# [14] = NCI-H522 cell line, read-out: Lung cancer, EC50 (μM) NCI-H522
# [15] = DND41, DND-41 cell line, read-out: Haematopoietic & Lymphoid tumors, EC50 (μM) DND-41
# [16] = MV4-11, MV-4-11 cell line, read-out: Haematopoietic & Lymphoid tumors, EC50 (μM) MV-4-11
# [17] = Rec1, REC-1 cell line, read-out: Haematopoietic & Lymphoid tumors, EC50 (μM) REC-1
# [18] = SU-DHL-4, SUDHL4 cell line, read-out: Haematopoietic & Lymphoid tumors, EC50 (μM) SUDHL4
# [19] = HL-60 cell line, read-out: Haematopoietic & Lymphoid tumors, EC50 (μM) HL-60
# [20] = JM1 cell line, read-out: Haematopoietic & Lymphoid tumors, EC50 (μM) JM1
# [21] = JURKAT, Clone E6-1 cell line, read-out: Haematopoietic & Lymphoid tumors, EC50 (μM) JURKAT, Clone E6-1
# [22] = JeKo-1 cell line, read-out: Haematopoietic & Lymphoid tumors, EC50 (μM) JeKo-1
# [23] = KASUMI-1 cell line, read-out: Haematopoietic & Lymphoid tumors, EC50 (μM) KASUMI-1
# [24] = Loucy cell line, read-out: Haematopoietic & Lymphoid tumors, EC50 (μM) Loucy
# [25] = MOLT-4 cell line, read-out: Haematopoietic & Lymphoid tumors, EC50 (μM) MOLT-4
# [26] = TF-1 cell line, read-out: Haematopoietic & Lymphoid tumors, EC50 (μM) TF-1
# [27] = TOLEDO cell line, read-out: Haematopoietic & Lymphoid tumors, EC50 (μM) TOLEDO
# [28] = HCT-116, HCT116 cell line, read-out: Colorectal cancer, EC50 (μM) HCT116
# [29] = HT-29, HT29 cell line, read-out: Colorectal cancer, EC50 (μM) HT29
# [30] = SW-620, SW620 cell line, read-out: Colorectal cancer, EC50 (μM) SW620
# [31] = DLD-1 cell line, read-out: Colorectal cancer, EC50 (μM) DLD-1
# [32] = SW48 cell line, read-out: Colorectal cancer, EC50 (μM) SW48
# [33] = SW480 cell line, read-out: Colorectal cancer, EC50 (μM) SW480
# [34] = BXPC-3, BxPC3 cell line, read-out: Pancreatic cancer, EC50 BxPC3
# [35] = CAPAN-1, Capan1 cell line, read-out: Pancreatic cancer, EC50 Capan1
# [36] = Capan-2, Capan2 cell line, read-out: Pancreatic cancer, EC50 Capan2
# [37] = MIA PaCa-2 cell line, read-out: Pancreatic cancer, EC50 MIA PaCa-2
# [38] = PANC 05.04 cell line, read-out: Pancreatic cancer, EC50 PANC 05.04
# [39] = PANC-1 cell line, read-out: Pancreatic cancer, EC50 PANC-1
# [40] = UPAFII cell line, read-out: Pancreatic cancer, EC50 UPAFII
# [41] = DU-145, read-out: Prostate cancer EC50 Du-145
# [42] = PC-3, PC3 cell line, inhibition of cancer cell proliferation, read-out: Prostate cancer EC50 PC3
# [43] = 22Rv1 cell line, inhibition of cancer cell proliferation, read-out: Prostate cancer EC50 22Rv1
# [44] = LNCap clone FGC cell line, inhibition of cancer cell proliferation, read-out: Prostate cancer EC50 LNCap clone FGC
# [45] = VCaP (Sigma) cell line, inhibition of cancer cell proliferation, read-out: Prostate cancer EC50 VCaP (Sigma)
# [46] = PA-1, PA1 cell line, read-out: Ovarian cancer, EC50 (μM) PA1
# [47] = TOV112D, TOV-112D cell line, read-out: Ovarian cancer, EC50 (μM) TOV-112D
# [48] = OV-90 cell line, read-out: Ovarian cancer, EC50 (μM) OV-90
# [49] = OVCAR-3 cell line, read-out: Ovarian cancer, EC50 (μM) OVCAR-3
# T1 sequence (P49760 whole entry): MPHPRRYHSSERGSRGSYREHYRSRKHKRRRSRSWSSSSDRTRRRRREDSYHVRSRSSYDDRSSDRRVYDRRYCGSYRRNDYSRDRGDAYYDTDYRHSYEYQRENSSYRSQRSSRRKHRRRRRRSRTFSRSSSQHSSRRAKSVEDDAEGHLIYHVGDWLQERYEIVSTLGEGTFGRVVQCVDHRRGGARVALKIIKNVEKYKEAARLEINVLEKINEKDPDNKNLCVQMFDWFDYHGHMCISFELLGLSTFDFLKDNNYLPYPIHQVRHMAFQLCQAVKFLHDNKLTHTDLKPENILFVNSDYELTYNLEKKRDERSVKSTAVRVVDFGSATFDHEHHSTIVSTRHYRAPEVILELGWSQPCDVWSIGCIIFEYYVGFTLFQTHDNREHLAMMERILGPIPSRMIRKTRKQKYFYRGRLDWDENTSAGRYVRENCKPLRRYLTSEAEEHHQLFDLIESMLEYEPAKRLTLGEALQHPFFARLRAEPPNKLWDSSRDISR
# Chain of CLK3 (P49761 whole entry): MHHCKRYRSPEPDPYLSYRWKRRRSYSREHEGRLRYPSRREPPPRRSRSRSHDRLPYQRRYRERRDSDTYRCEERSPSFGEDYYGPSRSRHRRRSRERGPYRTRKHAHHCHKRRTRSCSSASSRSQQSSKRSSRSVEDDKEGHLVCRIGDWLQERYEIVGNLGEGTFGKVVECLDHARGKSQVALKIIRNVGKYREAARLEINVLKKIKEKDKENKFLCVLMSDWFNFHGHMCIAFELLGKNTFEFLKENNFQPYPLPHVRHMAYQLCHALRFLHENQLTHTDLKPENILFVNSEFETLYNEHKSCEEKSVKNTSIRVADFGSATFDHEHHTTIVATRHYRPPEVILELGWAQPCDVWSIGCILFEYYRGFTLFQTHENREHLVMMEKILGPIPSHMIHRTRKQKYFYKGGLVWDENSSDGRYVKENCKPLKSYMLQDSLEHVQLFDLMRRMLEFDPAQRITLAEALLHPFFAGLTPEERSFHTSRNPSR
structure (smiles),measurement,setting,value
CS(=O)(=O)NCc1cc(F)cc(-c2nccc3[nH]c(-c4n[nH]c5ccc(-c6cncc(NC(=O)C7CCC7)c6)cc45)cc23)c1 [Compound 53],EC50,[1]; [8],79 nM
same,EC50,[1]; [9],2090 nM
same,EC50,[1]; [10],> 10000 nM
same,EC50,CLK2,9.7 nM
same,EC50,[2]; [11],0.23 µM
same,EC50,[2]; [12],0.961 µM
same,EC50,[2]; [13],> 10 µM
same,EC50,[2]; [14],0.327 µM
same,EC50,all 50 cell lines,2.12 µM
same,EC50,CAMA1,340 nM
same,EC50,MCF7,6.39 µM
same,EC50,HCC1599,209 nM
same,EC50,T47D,455 nM
same,EC50,ZR-75-1,1280 nM
same,EC50,BT-549,761 nM
same,EC50,DU4475,3130 nM
same,EC50,MDA-MB-231-Luc,1500 nM
same,EC50,[3]; [15],0.176 µM
same,EC50,[3]; [16],0.046 µM
same,EC50,[3]; [17],7.2 µM
same,EC50,[3]; [18],0.477 µM
same,EC50,[3]; [19],1.02 µM
same,EC50,[3]; [20],0.222 µM
same,EC50,[3]; [21],2.44 µM
same,EC50,[3]; [22],0.088 µM
same,EC50,[3]; [23],0.804 µM
same,EC50,[3]; [24],0.15 µM
same,EC50,[3]; [25],2.02 µM
same,EC50,[3]; [26],4.7 µM
same,EC50,[3]; [27],0.249 µM
same,EC50,[4]; [28],0.749 µM
same,EC50,[4]; [29],8.88 µM
same,EC50,[4]; [30],0.385 µM
same,EC50,[4]; [31],3.57 µM
same,EC50,[4]; [32],0.861 µM
same,EC50,[4]; [33],0.305 µM
same,EC50,[5]; [34],3.54 µM
same,EC50,[5]; [35],1.81 µM
same,EC50,[5]; [36],3 µM
same,EC50,[5]; [37],0.22 µM
same,EC50,[5]; [38],2.12 µM
same,EC50,[5]; [39],> 10 µM
same,EC50,[5]; [40],1.29 µM
same,EC50,CLK3,27.5 nM
same,EC50,[6]; [41],1160 nM
same,EC50,[6]; [42],473 nM
same,EC50,[6]; [43],563 nM
same,EC50,[6]; [44],2820 nM
same,EC50,[6]; [45],2460 nM
same,EC50,[7]; [46],2.29 µM
same,EC50,[7]; [47],0.446 µM
same,EC50,[7]; [48],1.6 µM
same,EC50,[7]; [49],0.145 µM
O=C1CCc2cccc(c2)-c2cncc3[nH]c(nc23)-c2n[nH]c3ccc(cc23)-c2cncc(c2)N1 [Compound 55],EC50,[1]; [8],605 nM
same,EC50,[1]; [9],> 3500 nM
same,EC50,[1]; [10],> 3500 nM
same,EC50,CLK2,1.9 nM
same,EC50,[2]; [11],3.1 µM
same,EC50,[2]; [12],> 3.5 µM
same,EC50,[2]; [13],> 3.5 µM
same,EC50,[2]; [14],2.47 µM
same,EC50,all 50 cell lines,6.89 µM
same,EC50,CAMA1,> 3500 nM
same,EC50,MCF7,> 3.5 µM
same,EC50,HCC1599,860 nM
same,EC50,T47D,> 3500 nM
same,EC50,ZR-75-1,> 3500 nM
same,EC50,BT-549,812 nM
same,EC50,DU4475,2800 nM
same,EC50,MDA-MB-231-Luc,> 3500 nM
same,EC50,[3]; [15],0.776 µM
same,EC50,[3]; [16],0.094 µM
same,EC50,[3]; [17],> 3.5 µM
same,EC50,[3]; [18],0.983 µM
same,EC50,[3]; [19],> 3.5 µM
same,EC50,[3]; [20],0.952 µM
same,EC50,[3]; [21],> 3.5 µM
same,EC50,[3]; [22],0.357 µM
same,EC50,[3]; [23],0.711 µM
same,EC50,[3]; [24],1.36 µM
same,EC50,[3]; [25],> 3.5 µM
same,EC50,[3]; [26],> 3.5 µM
same,EC50,[3]; [27],0.869 µM
same,EC50,[4]; [28],> 3.5 µM
same,EC50,[4]; [29],> 3.5 µM
same,EC50,[4]; [30],1.97 µM
same,EC50,[4]; [31],> 3.5 µM
same,EC50,[4]; [32],> 3.5 µM
same,EC50,[4]; [33],> 3.5 µM
same,EC50,[5]; [34],> 3.5 µM
same,EC50,[5]; [35],> 3.5 µM
same,EC50,[5]; [36],> 3.5 µM
same,EC50,[5]; [37],1.69 µM
same,EC50,[5]; [38],> 3.5 µM
same,EC50,[5]; [39],> 3.5 µM
same,EC50,[5]; [40],> 3.5 µM
same,EC50,CLK3,28.1 nM
same,EC50,[6]; [41],> 3500 nM
same,EC50,[6]; [42],3360 nM
same,EC50,[6]; [43],> 3500 nM
same,EC50,[6]; [44],> 3500 nM
same,EC50,[6]; [45],> 3500 nM
same,EC50,[7]; [46],> 3.5 µM
same,EC50,[7]; [47],> 3.5 µM
same,EC50,[7]; [48],> 3.5 µM
same,EC50,[7]; [49],0.766 µM

# From US20220062240A1, “METHODS OF TREATING CANCER USING A CLK INHIBITOR” (BioSplice Therapeutics, Inc., priority 2018, published 2022)
